In brackets after ≈: the same amount, converted by molar mass. One block for each compound: values may come before it.
Tests used:
Experiment in all cases: ≥ marks a high value that may be exact or a test limit, other limits are often not marked, values filed in µg/mL are converted to µM
[1] = test system: Pseudomonas aeruginosa ATCC 27853
[2] = test system: Staphylococcus aureus ATCC 25923
[3] = test system: Xanthomonas axonopodis pv. citri
[4] = test system: Staphylococcus aureus ATCC 29313
[5] = test system: Escherichia coli ATCC 8739
[6] = test system: Escherichia coli ATCC 25922
Escherichia coli = test system: Escherichia coli
Pseudomonas aeruginosa = test system: Pseudomonas aeruginosa
[7] = test system: Mycobacterium tuberculosis
Staphylococcus aureus = test system: Staphylococcus aureus
Yersinia pestis = test system: Yersinia pestis
Neisseria meningitidis = test system: Neisseria meningitidis
Salmonella typhimurium = test system: Salmonella typhimurium
Staphylococcus aureus MR = test system: Staphylococcus aureus MR
[8] = test system: Aeromonas salmonicida NCIMB 1102
[9] = test system: Planococcus citreus NCIMB 1493
[10] = test system: Vibrio anguillarum NCIMB 2133
[11] = test system: Yersinia ruckeri NCIMB 2196
[12] = test system: Micrococcus luteus ATCC 4698
[13] = test system: Vibrio anguillarum VI-F258-3
Yersinia ruckeri VI-3629 = test system: Yersinia ruckeri VI-3629
[14] = test system: Corynebacterium glutamicum ATCC 13032
[15] = test system: Vibrio anguillarum NCIMB 2129
[16] = test system: Psychrobacter immobilis NCIMB 308
[17] = test system: Staphylococcus aureus ATCC 9144
[18] = test system: Escherichia coli CIB 84492
[19] = test system: Staphylococcus aureus CIB 85462
[20] = test system: Escherichia coli ATCC 25726
[21] = test system: Candida albicans ATCC 90028
[22] = test system: Klebsiella pneumoniae ATCC 700603
[23] = test system: Acinetobacter baumannii NM8
[24] = test system: Stenotrophomonas maltophilia B32/4
[25] = test system: Staphylococcus epidermidis RP62A
[26] = test system: Staphylococcus epidermidis RP62A/1
Vibrio anguillarum = test system: Vibrio anguillarum
Micrococcus luteus = test system: Micrococcus luteus
Vibrio harveyi = test system: Vibrio harveyi
[27] = test system: Staphylococcus haemolyticus
Aeromonas hydrophila = test system: Aeromonas hydrophila
Aerococcus viridans = test system: Aerococcus viridans
Escherichia coli 363 = test system: Escherichia coli 363
Bacillus subtilis = test system: Bacillus subtilis

MIC [1]: 10 µM (≈ 31.4 µg/mL) | MIC [2]: 1.27 µM (≈ 4 µg/mL) | MIC [3]: 2 µM (≈ 6.28 µg/mL) | MIC [5]: 1.27 µM (≈ 4 µg/mL) | MIC [6]: 5 µM (≈ 15.7 µg/mL)
SMILES: CC(C)C[C@H](NC(=O)[C@H](C)NC(=O)[C@@H](NC(=O)[C@H](CCCCN)NC(=O)CNC(=O)[C@@H](NC(=O)[C@@H](NC(=O)[C@H](CCCCN)NC(=O)CNC(=O)[C@H](CC(C)C)NC(=O)[C@H](CO)NC(=O)[C@H](CCCCN)NC(=O)[C@H](CC(C)C)NC(=O)[C@H](CCCCN)NC(=O)[C@H](CC(=O)O)NC(=O)[C@H](CC(C)C)NC(=O)[C@H](Cc1c[nH]c2ccccc12)NC(=O)[C@H](C)N)C(C)C)C(C)C)C(C)C)C(=O)NCC(=O)N[C@H](C(=O)N[C@@H](C)C(=O)N[C@@H](CCC(N)=O)C(=O)N[C@@H](CC(N)=O)C(=O)N[C@@H](Cc1ccc(O)cc1)C(=O)N[C@@H](CC(C)C)C(=O)N[C@@H](CC(N)=O)C(=O)N1CCC[C@H]1C(=O)N[C@@H](CCC(N)=O)C(=O)N[C@@H](CCC(N)=O)C(=O)O)C(C)C [AWLDKLKSLGKVVGKVALGVAQNYLNPQQ]
MIC [4]: 20 µM (≈ 62.8 µg/mL)

SMILES: CC[C@H](C)[C@H](NC(=O)CNC(=O)CNC(=O)[C@H](CCSC)NC(=O)[C@H](CC(C)C)NC(=O)[C@H](CCC(=O)O)NC(=O)[C@H](CCCN=C(N)N)NC(=O)CNC(=O)[C@H](CCCN=C(N)N)NC(=O)[C@H](CCSC)NC(=O)CNC(=O)[C@@H](NC(=O)[C@H](CCCN=C(N)N)NC(=O)[C@H](CC(C)C)NC(=O)[C@@H](N)CS)[C@@H](C)CC)C(=O)NCC(=O)N[C@@H](CCCCN)C(=O)N[C@H](C(=O)N[C@@H](CCSC)C(=O)O)[C@@H](C)O [CLRIGMRGRELMGGIGKTM]
MIC (Escherichia coli): 144 µM (≈ 300 µg/mL) | MIC (Pseudomonas aeruginosa): 144 µM (≈ 300 µg/mL) | MIC [7]: ≥ 144 µM | MIC (Staphylococcus aureus): 144 µM (≈ 300 µg/mL) | MIC (Yersinia pestis): ≥ 144 µM | MIC (Neisseria meningitidis): ≥ 144 µM | MIC (Salmonella typhimurium): ≥ 144 µM | MIC (Staphylococcus aureus MR): ≥ 144 µM

MIC [8]: 10 µM (≈ 25 µg/mL) | MIC [9]: 10 µM (≈ 25 µg/mL) | MIC [10]: 10 µM (≈ 25 µg/mL) | MIC [11]: 10 µM (≈ 25 µg/mL) | MIC [12]: 10 µM (≈ 25 µg/mL) | MIC [13]: 10 µM (≈ 25 µg/mL) | MIC (Yersinia ruckeri VI-3629): 10 µM (≈ 25 µg/mL) | MIC [14]: 10 µM (≈ 25 µg/mL) | MIC [15]: 10 µM (≈ 25 µg/mL) | MIC [16]: 10 µM (≈ 25 µg/mL) | MIC [17]: 10 µM (≈ 25 µg/mL) | MIC [6]: > 10 µM
SMILES: CC[C@H](C)[C@H](NC(=O)[C@H](CC(C)C)NC(=O)CNC(=O)[C@@H](NC(=O)[C@@H](NC(=O)[C@H](Cc1cnc[nH]1)NC(=O)[C@H](Cc1cnc[nH]1)NC(=O)[C@H](CC(C)C)NC(=O)[C@@H](N)Cc1ccccc1)[C@@H](C)CC)C(C)C)C(=O)N[C@@H](Cc1cnc[nH]1)C(=O)N[C@@H](Cc1cnc[nH]1)C(=O)NCC(=O)N[C@@H](CCCCN)C(=O)N[C@@H](CC(C)C)C(=O)N[C@@H](CC(=O)O)C(=O)N[C@@H](CCSC)C(=O)N[C@@H](Cc1ccc(O)cc1)C(=O)N[C@@H](CCCN=C(N)N)C(=O)N[C@@H](CO)C(=O)N[C@@H](CC(N)=O)C(=O)N[C@@H](CC(N)=O)C(=O)O [FLHHIVGLIHHGKLDMYRSNN]

MIC [2]: 6.15 µM (≈ 16 µg/mL) | MIC [18]: 24.6 µM (≈ 64 µg/mL) | MIC [19]: 3.07 µM (≈ 7.99 µg/mL) | MIC [6]: 49.2 µM (≈ 128 µg/mL)
SMILES: CC[C@H](C)[C@@H]1NC(=O)[C@H](CC(C)C)NC(=O)[C@@H](NC(=O)[C@H](Cc2ccccc2)NC(=O)[C@@H](NC(=O)[C@@H](NC(=O)[C@@H]2CCCN2C(=O)[C@@H](NC(=O)[C@@H](NC(=O)[C@H](CCCCN)NC(=O)[C@H](C)NC(=O)[C@H](C)NC(=O)[C@@H](NC(=O)[C@H](CCCN=C(N)N)NC(=O)[C@H](CC(C)C)NC(=O)[C@@H](NC(=O)[C@H](C)NC(=O)[C@@H]2CCCN2C(=O)[C@H](CC(C)C)NC(=O)[C@@H](N)Cc2ccccc2)C(C)C)C(C)C)C(C)C)C(C)C)[C@@H](C)O)C(C)C)CSSC[C@@H](C(=O)O)NC(=O)[C@H](CCCCN)NC(=O)[C@H](CCCCN)NC(=O)[C@H](CO)NC1=O [FLPAVLRVAAKVVPTVFCLISKKC]

MIC [1]: > 128 µM | MIC [20]: ≥ 256 µM | MIC [2]: 32 µM (≈ 51.1 µg/mL) | MIC [21]: ≥ 128 µM | MIC [22]: > 128 µM | MIC [23]: ≥ 128 µM | MIC [24]: ≥ 128 µM | MIC [25]: 16 µM (≈ 25.6 µg/mL) | MIC [26]: 8 µM (≈ 12.8 µg/mL)
SMILES: CC[C@H](C)[C@H](N)C(=O)N[C@@H](CC(C)C)C(=O)NCC(=O)N[C@@H](CCCCN)C(=O)N[C@@H](CC(C)C)C(=O)N[C@@H](CC(C)C)C(=O)N[C@@H](CO)C(=O)N[C@H](C(=O)N[C@@H](C)C(=O)N[C@@H](C)C(=O)NCC(=O)N[C@@H](CC(C)C)C(=O)N[C@@H](CC(C)C)C(=O)N[C@@H](CO)C(=O)N[C@@H](CCCCN)C(=O)N[C@@H](CC(C)C)C(N)=O)[C@@H](C)O [ILGKLLSTAAGLLSKL]

MIC (Vibrio anguillarum): ≥ 50 µM | MIC (Micrococcus luteus): 25 µM (≈ 74.8 µg/mL) | MIC (Vibrio harveyi): ≥ 50 µM | MIC (Aeromonas hydrophila): ≥ 50 µM | MIC (Aerococcus viridans): 12.5 µM (≈ 37.4 µg/mL) | MIC (Escherichia coli 363): ≥ 50 µM | MIC (Bacillus subtilis): ≥ 50 µM
SMILES: CC[C@H](C)[C@H](N)C(=O)N1CCC[C@H]1C(=O)N[C@@H](C)C(=O)N[C@@H](CCSC)C(=O)N[C@@H](CCC(=O)O)C(=O)N1CCC[C@H]1C(=O)N[C@@H](C)C(=O)N[C@@H](C)C(=O)N[C@@H](CCCN=C(N)N)C(=O)N[C@H](C(=O)N[C@@H](CCCCN)C(=O)N[C@@H](CCCN=C(N)N)C(=O)N[C@@H](CO)C(=O)N1CCC[C@H]1C(=O)NCC(=O)N[C@@H](Cc1ccc(O)cc1)C(=O)NCC(=O)NCC(=O)N[C@H]1CSSC[C@@H](C(=O)NCC(=O)NCC(=O)N[C@@H](Cc2ccc(O)cc2)C(=O)NCC(=O)O)NC(=O)[C@H](C)NC(=O)[C@H](Cc2c[nH]c3ccccc23)NC(=O)[C@H](CCCN=C(N)N)NC(=O)[C@@H]2CCCN2C(=O)[C@H](CO)NC1=O)C(C)C [IPAMEPAARVKRSPGYGGCSPRWACGGYG]
MIC [27]: ≥ 50 µM
